Experimental data from patent US20210030725A1, “RESTORATION OF TRANSMEMBRANE COPPER TRANSPORT” (The Board of Trustees of the University of Illinois, priority 2018, published 2021).

Tests used:
[1] = Stoichiometric metal competition, ICP-MS quantification of extracted hinokitiol-bound metal; format: binding; conditions: 1 mM each divalent metal, 1 mM hinokitiol, 10 mM Mes/Tris, 1:1 MeOH:H2O, pH 7.0, N=6
Experimental: Hinokitiol binds to and sequesters copper with a greater affinity than any other metal (including iron). Stoichiometric competition experiments with 1 mM of each divalent metal and 1 mM hinokitiol in a 10 mM Mes/Tris buffer in 1:1 MeOH:H2O at pH=7.0. Hinokitiol binds many metals by ICP-MS quantification of extracted hinokitiol-bound metal. The metal in the organic layer was determined to be in the order of Cu>Fe>Mn≈Zn>Co>Ni. ND=Not detected. N=6. (FIG. 2)

[2] = Hinokitiol-promoted release of divalent metals from POPC liposomes (PhenGreen assay); conditions: hinokitiol 10 μM
Experimental: Hinokitiol-promoted release of different divalent metals from POPC liposomes was performed by tracking the quenching of PhenGreen (Fisher P14312) similar to previously reported. Liposomes were prepared as described above with an internal buffer consisting of either 10 mM ascorbate in a 5 mM MES/Tris buffer at pH=7.0 (for Fe^2+), 10 mM citrate in a 5 mM MES/Tris buffer at pH=7.0 (for Cu^2+), or a 5 mM MES/Tris buffer at pH=7.0 (for Mn^2+, Co^2+, and Zn^2+). In all cases, liposomes were prepared using 5 mM of either FeCl2, MnCl2, CoCl2, NiCl2, ZnCl2, or CuCl2 added to the internal buffer. […] The fluorescence was monitored with excitation at 500 nm and emission at 530 nm over 1 hour. After one hour, the liposomes were lysed with Triton-X and the fluorescence was recorded. […] The DMSO-treated and hinokitiol-treated liposomes had similar fluorescence quenching levels after lysis. The total amount of metal efflux was determined using standard curves of fluorescence quenching in external buffer with 10 μM PhenGreen and known concentrations of each metal. The t1/2 values were calculated using an asymptotic fit in OriginPro. […] Hinokitiol (10 μM) rapidly promotes the efflux of multiple divalent metals from POPC liposomes as determined by a PhenGreen assay. […] Quantification of metal release was done by comparison of fluorescence quenching to a standard curve for each metal. […]

[3] = UV-vis titration with copper (II) chloride; format: binding
[4] = Partitioning of chelator:copper complex between octanol and water; format: physicochemical; conditions: hinokitiol:copper complex
Experimental: Biophysical experiments were performed to better understand the capacity of hinokitiol to bind and transport copper. […] Unlike the aforementioned water-soluble copper chelators, the hinokitiol:copper complex primarily partitioned into the nonpolar solvents over water (FIG. 4A). To expand, 95% of the hinokitiol:copper complex partitioned into octanol over water as opposed to >85% of the currently available water-soluble chelators partitioned into water over octanol.

[5] = Copper (II) transport across liposomal membranes, hinokitiol vs water-soluble chelators; conditions: relative to controls
[6] = tested on: Δctr1Δctr3 yeast missing the passive copper transporters Ctr1Ctr3; experiment: Growth rescue of Δctr1Δctr3 yeast; format: cell-based, Saccharomyces cerevisiae; conditions: respiratory and non-permissive conditions, copper dependent, maximum at intermediate hinokitiol concentrations
Experimental: Growth rescue in yeast was performed using 10 μM hinokitiol in SD media in a 96-well plate unless otherwise noted. Wild type and DELctr1DELctr3 yeast strain controls treated with vehicle (DMSO) or hinokitiol were performed under identical conditions using a normal iron-containing, no-copper containing SD media, supplemented with 1.0 μM CuCl2. Yeast were grown overnight in YPD media and diluted at an OD600 of 0.1 in SD media, diluted 10-fold, and incubated at 30° C. with continuous shaking (200 rpm). The OD600 was obtained 48 hours after inoculation unless otherwise noted. Small molecule dose-response with hinokitiol was determined by addition of the small molecule (40× stock solution in DMSO) to give the indicated final concentrations. Copper dose-response studies were performed in low copper SD media without CuCl2 containing the indicated concentrations of hinokitiol (from a 40× stock solution in DMSO). For dose-dependent hinokitiol-promoted rescue at increasing dosages of CuCl2, SD media was made containing the indicated concentrations of CuCl2 from 1000× CuCl2 stocks before adding hinokitiol (40× stock solution in DMSO) to give the indicated final concentrations. […]

[7] = tested on: iron transporter-deficient yeast missing the FetFtr1 transport complex; experiment: Growth rescue of iron transporter-deficient yeast; format: cell-based, Saccharomyces cerevisiae; conditions: respiratory and non-permissive copper conditions
[8] = tested on: DELccc2 yeast strain missing the intracellular ATP-driven copper pump CCC2; experiment: Growth rescue of DELccc2 yeast on solid media; format: cell-based
Experimental: Growth rescue in yeast was performed on SD-agar plates in 50 mM MES/Tris buffer at pH=7.0 containing 2% agarose gel, and 10 μM hinokitiol (from 40× stock in DMSO). Wild type and DELccc2 yeast strain controls treated with vehicle (DMSO) were performed under identical conditions using a no-copper containing SD media supplemented with 0.5 μM CuCl2 in the absence of hinokitiol. Yeast were grown overnight in YPD media and diluted to an optical density at 600 nm (OD600) of 1.0 in low copper SD media before 10-fold serial dilution and inoculation of these yeast suspensions (10 μL per dot) onto the low copper SD-agar plates described above containing either DMSO vehicle or hinokitiol (10 μM from 40× DMSO stock). For disc diffusion assays, yeast were grown overnight in YPD media and diluted to an OD600=0.1 in low copper SD media and streaked onto low copper SD-agar plates containing 0.5 μM CuCl2. Disc diffusion assays were performed using either DMSO or 10 mM stock solutions (in DMSO) of hinokitiol on low copper SD-agar plates containing 0.5 μM CuCl2 streaked with the appropriate yeast strain (from OD600=0.1 in low copper SD media). Images were taken 48 hours after inoculation and incubation at 30° C. unless otherwise noted. […]

[9] = tested on: DELccc2 yeast strain missing the intracellular ATP-driven copper pump CCC2; experiment: Growth rescue of DELccc2 yeast in liquid culture; format: cell-based
Experimental: Growth rescue in yeast was performed using 10 μM hinokitiol in SD media in a 96-well plate unless otherwise noted. Wild type and DELccc2 yeast strain treated with vehicle (DMSO) or hinokitiol were performed under identical conditions using a normal iron-containing, no-copper containing SD media, this time supplemented with 1.5 or 2 μM CuCl2. Yeast were grown overnight in YPD media and diluted at an OD600 of 0.1 in SD media, diluted 10-fold, and incubated at 30° C. with continuous shaking (200 rpm). The OD600 was obtained 48 hours after inoculation unless otherwise noted. Small molecule dose-response with hinokitiol was determined by addition of the small molecule (40× stock solution in DMSO) to give the indicated final concentrations. Copper dose-response studies were performed in low copper SD media without CuCl2 containing the indicated concentrations of hinokitiol (from a 40× stock solution in DMSO). For dose-dependent hinokitiol-promoted rescue at increasing dosages of CuCl2, SD media was made containing the indicated concentrations of CuCl2 from 1000× CuCl2 stocks before adding hinokitiol (40× stock solution in DMSO) to give the indicated final concentrations. […]

CC(C)c1cccc(=O)c(O)c1 [hinokitiol, 2-hydroxy-6-propan-2-ylcyclohepta-2,4,6-trien-1-one]
order of metal in the organic layer (extracted hinokitiol-bound metal) [1]: Cu>Fe>Mn≈Zn>Co>Ni | transport of MnII from liposomes [2]: unable to transport | copper binding (complex formation, shift in UV-vis spectra) [3]: readily binds copper | share of copper complex partitioned into octanol over water [4]: 95% | copper (II) transport across liposomal membranes [5]: transported copper (II) across liposomal membranes | restoration of yeast growth [6]: dose-dependently restored yeast growth up to wild type control levels | restoration of yeast growth [7]: unable to restore growth | growth rescue [8]: Vigorous rescue | growth rescue [9]: Vigorous rescue
